From patent publication US12344610B2, “APOL1 inhibitors and methods of use” (Maze Therapeutics, Inc., priority 2022, dated 2025)

Experiments:
APOL1 G2 = molecular target: T1, APOL1 G2 (Homo sapiens, UniProt O14791, DEL388-389); assay: APOL1-mediated calcium transport (calcium influx) assay, HEK T-REx/GCaMP6f/APOL1 G2 K6.3 cells, FLIPR TETRA; type: cell-based; conditions: prevention of calcium influx; geometric mean of at least 2 assay runs; † = average of a technical replicate from a single assay run
T1 construct: expressed in transfected cells; host or cells: HEK293 T-REx clonal line stably expressing GCaMP6f (HEK T-REx/GCaMP6f/APOL1 G2 K6.3), doxycycline induced
T1 sequence (O14791 with tags, fused parts or gaps DEL388-389): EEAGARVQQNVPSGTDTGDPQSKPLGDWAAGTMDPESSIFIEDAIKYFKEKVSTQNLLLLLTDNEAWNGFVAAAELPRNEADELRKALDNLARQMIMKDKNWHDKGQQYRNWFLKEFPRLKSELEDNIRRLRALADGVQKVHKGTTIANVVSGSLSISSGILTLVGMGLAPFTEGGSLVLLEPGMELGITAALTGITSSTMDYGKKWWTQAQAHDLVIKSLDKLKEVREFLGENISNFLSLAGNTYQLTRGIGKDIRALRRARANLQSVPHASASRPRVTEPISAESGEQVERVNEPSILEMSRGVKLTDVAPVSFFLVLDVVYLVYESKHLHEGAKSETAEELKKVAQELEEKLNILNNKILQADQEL
How it was run: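 A HEK293 T-REx clone stably expressing GCaMP6f had APOL1 G2 induced with doxycycline (20 ng/mL solution added) for 6 h. Cells were then washed into Ca2+-free Tyrode's buffer (pH 7.4) and preincubated with compounds (duplicate 8-point) for 10 min at room temperature. Ca2+ injection to 5 mM final produced FLIPR GCaMP fluorescence, giving AC50 for influx inhibition (geometric mean, ≥2 runs).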

[1] = test system: HEK293 cells overexpressing APOL1 G2; assay: APOL1 G2 HEK293 cell rescue assay (reversal of cell death caused by overexpression of APOL1); type: cell-based; conditions: geometric mean of at least 2 assay runs, † = single assay run
How it was run: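 Each compound tested in duplicate wells on one plate per run, with values usually the geometric mean across at least two runs on different days, occasionally from one run only. Read-out: concentration giving half-maximal rescue of APOL1 G2 overexpression-induced death of HEK293 cells.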

[2] = Homo sapiens, HEK293, HEK293 overexpressing APOL1 G2

Structure (SMILES) | AC50 (APOL1 G2) [nM] | EC50 ([1]; HEK293 overexpressing APOL1 G2) [nM] | EC50 [1, 2] [nM]
O=C1NCC2c3ccc(OCCN4CCC5(CC4)C(=O)Nc4ccc(Cl)cc45)cc3CCN12 (single isomer, unassigned) [Compound 117, (R) or (S)-5-chloro-1′-[2-({3-oxo-1H,2H,3H,5H,6H,10bH-imidazo[4,3-a]isoquinolin-8-yl}oxy)ethyl]-1,2-dihydrospiro[indole-3,4′-piperidin]-2-one] | 396 | 81.5 | 
CC1(Oc2ncc(OCCN3CCC4(CC3)C(=O)Nc3ccc(Cl)cc34)cn2)COC1 [Compound 172, 5-chloro-1′-[2-({2-[(3-methyloxetan-3-yl)oxy]pyrimidin-5-yl}oxy)ethyl]-1,2-dihydrospiro[indole-3,4′-piperidin]-2-one] | 479 |  | 99.1
CS(=O)(=O)C1(c2ccc(OCCN3CCC4(CC3)C(=O)Nc3ccc(Cl)cc34)cc2)CC2(COC2)C1 [Compound 182, 5-chloro-1′-[2-(4-{6-methanesulfonyl-2-oxaspiro[3.3]heptan-6-yl}phenoxy)ethyl]-1,2-dihydrospiro[indole-3,4′-piperidin]-2-one] | 574 |  | 99.6
CS(=O)(=O)C1(c2ccc(OCCN3CCC4(CC3)C(=O)N(CC(F)(F)F)c3ccc(C#N)cc34)cc2)COC1 [Compound 184, 1′-{2-[4-(3-methanesulfonyloxetan-3-yl)phenoxy]ethyl}-2-oxo-1-(2,2,2-trifluoroethyl)-1,2-dihydrospiro[indole-3,4′-piperidine]-5-carbonitrile] | 1280 |  | 498
O=C1Nc2ccc(Cl)cc2C12CCN(CCOc1ccc3c(c1)CCNS3(=O)=O)CC2 [Compound 167, 6-(2-{5-chloro-2-oxo-1,2-dihydrospiro[indole-3,4′-piperidin]-1′-yl}ethoxy)-3,4-dihydro-2H-1λ^6,2-benzothiazine-1,1-dione] | 467 |  | 42.7
CN1CCc2cc(OCCN3CCC4(CC3)C(=O)Nc3ccc(Cl)cc34)ccc2S1(=O)=O [Compound 153, 6-(2-{5-chloro-2-oxo-1,2-dihydrospiro[indole-3,4′-piperidin]-1′-yl}ethoxy)-2-methyl-3,4-dihydro-2H-1λ^6,2-benzothiazine-1,1-dione] | 826 |  | 22.1
O=C1Nc2ccc(Cl)cc2C12CCN(CCOc1ccc(S(=O)(=O)C(F)F)cc1)CC2 [Compound 112, 5-chloro-1′-[2-(4-difluoromethanesulfonylphenoxy)ethyl]-1,2-dihydrospiro[indole-3,4′-piperidin]-2-one] | 746 |  | 47.2
CS(=O)(=O)c1ccc(OCCN2CCC3(CC2)C(=O)Nc2c(C#N)cc(Cl)cc23)cc1 [Compound 9, 5-chloro-1′-[2-(4-methanesulfonylphenoxy)ethyl]-2-oxo-1,2-dihydrospiro[indole-3,4′-piperidine]-7-carbonitrile] | 1310 |  | 1760
CS(=O)(=O)c1ccc(OCCN2CCC3(CC2)C(=O)Nc2ccc(C#N)cc23)cc1C(F)(F)F [Compound 107, 1′-{2-[4-methanesulfonyl-3-(trifluoromethyl)phenoxy]ethyl}-2-oxo-1,2-dihydrospiro[indole-3,4′-piperidine]-5-carbonitrile] | 712 |  | 30.8
O=C1CCc2cc(OCCN3CCC4(CC3)C(=O)Nc3ccc(Cl)cc34)ccc2N1C1COC1 [Compound 99, 5-chloro-1′-(2-{[1-(oxetan-3-yl)-2-oxo-1,2,3,4-tetrahydroquinolin-6-yl]oxy}ethyl)-1,2-dihydrospiro[indole-3,4′-piperidin]-2-one] | 643 |  | 86.5
CS(=O)(=O)C1(c2ccc(OCCN3CCC4(CC3)C(=O)Nc3ccc(Cl)cc34)cc2)CCC1 [Compound 180, 5-chloro-1′-{2-[4-(1-methanesulfonylcyclobutyl)phenoxy]ethyl}-1,2-dihydrospiro[indole-3,4′-piperidin]-2-one] | 756 |  | 22.1
CC(C)N1C(=O)Cc2cc(OCCN3CCC4(CC3)C(=O)Nc3ccc(C#N)cc34)ccc21 [Compound 144, 2-oxo-1′-(2-{[2-oxo-1-(propan-2-yl)-2,3-dihydro-1H-indol-5-yl]oxy}ethyl)-1,2-dihydrospiro[indole-3,4′-piperidine]-5-carbonitrile] | 708 |  | 81
Cn1c(=O)oc2cc(OCCN3CCC4(CC3)C(=O)Nc3ccc(C#N)cc34)ccc21 [Compound 132, 1′-{2-[(3-methyl-2-oxo-2,3-dihydro-1,3-benzoxazol-6-yl)oxy]ethyl}-2-oxo-1,2-dihydrospiro[indole-3,4′-piperidine]-5-carbonitrile] | 492 |  | 153
CCS(=O)(=O)C1(c2ccc(OCCN3CCC4(CC3)C(=O)Nc3ccc(C#N)cc34)cc2)COC1 [Compound 174, 1′-(2-{4-[3-(ethanesulfonyl)oxetan-3-yl]phenoxy}ethyl)-2-oxo-1,2-dihydrospiro[indole-3,4′-piperidine]-5-carbonitrile] | 484 |  | 104
CS(=O)(=O)c1ccc(OCCN2CCC3(CC2)C(=O)Nc2ccc(C#N)cc23)cc1C(F)F [Compound 100, 1′-{2-[3-(difluoromethyl)-4-methanesulfonylphenoxy]ethyl}-2-oxo-1,2-dihydrospiro[indole-3,4′-piperidine]-5-carbonitrile] | 503 |  | 46.5
C[C@@H](COc1ccc(S(C)(=O)=O)cc1)N1CCC2(CC1)C(=O)Nc1ccc(Cl)cc12 (single isomer, unassigned) [Compound 10] | 1270 |  | 90.3
CS(=O)(=O)C1(c2ccc(OCCN3CCC4(CC3)C(=O)Nc3ccc(Cl)cc34)cc2)CC1 [Compound 102, 5-chloro-1′-{2-[4-(1-methanesulfonylcyclopropyl)phenoxy]ethyl}-1,2-dihydrospiro[indole-3,4′-piperidin]-2-one] | 671 |  | 31.4
Cc1cc(OCCN2CCC3(CC2)C(=O)Nc2ccc(Cl)cc23)ccc1S(C)(=O)=O [Compound 110, 5-chloro-1′-[2-(4-methanesulfonyl-3-methylphenoxy)ethyl]-1,2-dihydrospiro[indole-3,4′-piperidin]-2-one] | 772 |  | 41.3
CC(c1ccc(OCCN2CCC3(CC2)C(=O)Nc2ccc(C#N)cc23)cc1)S(C)(=O)=O (single isomer, unassigned) [Compound 135, (R) or (S)-1′-{2-[4-(1-methanesulfonylethyl)phenoxy]ethyl}-2-oxo-1,2-dihydrospiro[indole-3,4′-piperidine]-5-carbonitrile] | 763 | 211 | 
CN1C(=O)Cc2cc(OCCN3CCC4(CC3)C(=O)Nc3ccc(C#N)cc34)cc(F)c21 [Compound 169, 1′-{2-[(7-fluoro-1-methyl-2-oxo-2,3-dihydro-1H-indol-5-yl)oxy]ethyl}-2-oxo-1,2-dihydrospiro[indole-3,4′-piperidine]-5-carbonitrile] | 1210 |  | 247
CS(=O)(=O)c1ccc(OCCN2CCC3(CC2)C(=O)Nc2ccc(C#N)cc23)cc1OC(F)F [Compound 164, 1′-{2-[3-(difluoromethoxy)-4-methanesulfonylphenoxy]ethyl}-2-oxo-1,2-dihydrospiro[indole-3,4′-piperidine]-5-carbonitrile] | 555 |  | 103
CS(=O)(=O)C1(c2ccc(OCCN3CCC4(CC3)C(=O)Nc3ccc(C#N)cc34)cc2C(F)(F)F)COC1 [Compound 166, 1′-{2-[4-(3-methanesulfonyloxetan-3-yl)-3-(trifluoromethyl)phenoxy]ethyl}-2-oxo-1,2-dihydrospiro[indole-3,4′-piperidine]-5-carbonitrile] | 618 |  | 56.1
Cc1cc(OCCN2CCC3(CC2)C(=O)Nc2ccc(Cl)cc23)cc(C)c1S(C)(=O)=O [Compound 129, 5-chloro-1′-[2-(4-methanesulfonyl-3,5-dimethylphenoxy)ethyl]-1,2-dihydrospiro[indole-3,4′-piperidin]-2-one] | 352 |  | 24.6
O=C1Nc2ccc(Cl)cc2C12CCN(CCOc1ccc3c(cnn3C3COC3)c1)CC2 [Compound 15, 5-chloro-1′-(2-{[1-(oxetan-3-yl)-1H-indazol-5-yl]oxy}ethyl)-1,2-dihydrospiro[indole-3,4′-piperidin]-2-one] | 654 |  | 124
CS(=O)(=O)C1(c2ccc(OCCN3CCC4(CC3)C(=O)Nc3ccc(Cl)cc34)cc2C(F)(F)F)COC1 [Compound 165, 5-chloro-1′-{2-[4-(3-methanesulfonyloxetan-3-yl)-3-(trifluoromethyl)phenoxy]ethyl}-1,2-dihydrospiro[indole-3,4′-piperidin]-2-one] | 558 |  | 21.2
